Laboratory results published in EP2545914A1, “2-amino-2-oxoethyl trans-3-[5-(6-methoxy-naphtalen-1-yl)-1,3-dioxan-2-yl]propyl-carbamate for use in the treatment of persistent cancer pain” (SANOFI, priority 2011, dated 2013).
Where two headings read alike, the source gives them in different places.

Legend:
[1] = system: UDP-glucuronosyl transferase; assay type: in vitro ADME, human; conditions: for % Control (M6G formation) / % Control (M3G formation): Morphine 2mM, protein 0.5 mg/mL, 30 min
Method: Incubations were conducted in 2-mL polypropylene centrifuge tubes. Incubation mixtures containing HLM suspension and alamethicin (25 µg/mL) in 0.1 M potassium phosphate buffer (pH 7.4), were placed on wet ice for 5 min. […] Reactions were initiated by the addition of 50 mM UDPGA spiking solution. […] Samples were incubated aerobically in a water bath at 37 °C for the required amount of time and reactions terminated by the addition of 400 µL of the appropriate quench solution. The 2-mL centrifuge tubes were vortex mixed and stored in a -20 °C freezer for ca. 20 min prior to centrifugation at 13.3 x g, 4 °C for 10 min. Supernatants were analyzed by LC-MS/MS for morphine metabolites formation.
UGT-dependent activities were determined by monitoring the formation of enzyme specific metabolites from marker substrates. […] Incubation with selective inhibitors (positive control) was performed at a concentration above their established IC50 for the confirmation of enzyme activity and inhibitory effects.
Incubations were performed in 2-mL centrifuge tubes. Incubation mixtures containing HLM suspension and alamethicin (25 µg/mL) in 0.1 M potassium phosphate buffer (pH 7.4), were placed on wet ice for 5 min. […] Reactions were initiated by the addition of UDPGA. The final incubation mixture contained 0.5 mg/mL HLM, 2 mM MgCl2, 5 mM UDPGA, various concentration of Compound A or a selective inhibitor. Samples were incubated aerobically in a water bath at 37 °C for 30 min. The incubation systems were terminated by the addition of a 400-µL quenching solution. The 2-mL centrifuge tubes were vortex mixed and stored in a -20 °C freezer for approximately 20 min prior to centrifugation at 13.3 x g, 4 °C for 10 min. Supernatants were analyzed by LC-MS/MS.
Percent of Control = Cmet÷Ccontrol × 100% [formula] • Cmet: Concentration of the metabolite in the incubations in the presence of Compound A or selective inhibitor • Ccontrol: Concentration of the enzyme-specific metabolite in the incubations in the absence of Compound A and selective inhibitor • The IC50 for Compound A was estimated by non-linear regression analysis of individual sets of percent inhibition values using GraphPad Prism 5.

[2] = system: mice inoculated with BO2 breast carcinoma cells; assay: Tactile allodynia (Dynamic Plantar Aesthesiometer) in a model of bone metastatic cancer pain induced by BO2 cells; assay type: in vivo, female BALB/cByJ Ico-nu/nu mice; conditions: for paw withdrawal thresholds to non-noxious stimulations versus vehicle-treated animals: p<0.0001; for Reversal of allodynia (%): T2h; for Delta values (Delta PWT): T2h minus T0
Method: The model of cancer pain MDA-MB-231 breast cancer cells cause the development of highly vascularized skeletal lesions in animals. Here, we chose to perform a model of bone metastasis induced by BO2 cells, a sub-clone of MDA-MB-231 cancer cells expressing the bioluminescent jellyfish protein (green fluorescent protein). BO2 cells were inoculated into the tail of nude mice. […] In our study, BO2 invasion of the hind paws was evaluated by combining both fluorescence imaging and X-Ray radiology with evaluation of allodynic-like behavior in the tumor-bearing hind paws. The aim of the study was to assess the anti-allodynic activity of Compound A in a model of bone metastatic cancer pain in mice, at the time when allodynia-like symptoms are fully developed.
Non-fasted female BALB/cByJ Ico-nu/nu mice (aged 4 weeks at the beginning of the experimental phase, Charles River Laboratories, L'Arbresle, France) were used for this study. One week before starting the experiment and to enable full acclimatization, mice were caged in groups of 10 animals per cage. They were housed in macrolon type III cages with filter hoods in a sterile room in which the air was continuously filtered to avoid any contamination. The sterility of the room was checked once a month and the cages were sterilized at 121°C for 30 minutes before use and changed twice a week. Room temperature was maintained at 22°C, and relative humidity at 60% ±10%. The animals were kept under a natural daylight cycle. The animals were fed with RO3 irradiated at 10 kGy, purchased from UAR (91360 Epinay sur Orge, France), and water sterilized at 121°C for 30 minutes. Water consumption was visually monitored daily and the bottles were changed twice a week. Food and water were given ad libitum. The animal bedding was produced by UAR and sterilized at 121°C for 30 minutes and renewed twice a week. One day before the beginning of the study, mice were implanted in the back with an electronic chip for identification purposes. The day of BO2 breast carcinoma inoculation into the tail vein, mice were placed in groups of 9 or 8 animals per cage. Tumor progression (fluorescence imaging +X-Ray radiology) associated with evoked pain behavior were measured at least once a week during the entire study (data available on request). This allowed us to ensure that only mice with tumor progression and pain-like behavior were selected to enter in the testing procedure.
Compound A as a base was prepared extemporaneously as follows: the compound was weighed and 0.5% of Tween 80 was added, followed by addition of 0.6% Methyl Cellulose. The resulting suspensions were maintained at room temperature under magnetic stirring until the administration. Compound A was administered via oral gavage in a volume of 10 mL/kg, once daily for 7 days. On the first day of treatment, Compound A was administered at 30 mg/kg. From day 2 to day 7, Compound A was administered at 10 mg/kg.
For the present study, 2 groups of 8 mice receiving the BO2 breast carcinoma cells and 1 group of 8 mice (control animals) receiving only the culture medium were used (Table 1.1). Table 1.1 - Design of the study
No animals were excluded for this study. However, one mouse died in one of the BO2-inoculated groups (mouse found dead in the cage on day 7), while no mice died in the control group (n = 8). No randomization was performed at the beginning of the experiment and mice were treated by cage. A seven day treatment with Compound A or vehicle was performed with evaluation of evoked pain at day 1, day 3 and day 7 post-treatment. As bone metastases were distributed in both hind-paws, we decided at the beginning of the study to arbitrarily measure pain-like behavior evoked by a stimulus in only one hind-paw (the right hind-paw). Pain-like behaviors before and after treatment with vehicle or Compound A were evaluated during 3 sessions (i.e. on day 1, day 3 and day 7). […]

Question: With `CC(=O)N1CCN(c2ccc(OCC3COC(Cn4ccnc4)(c4ccc(Cl)cc4Cl)O3)cc2)CC1` (centres unmarked) [ketoconazole, reference compound] as the compound, how does the “inhibition of M6G activity” value ([1]; positive control, same conditions (2 mM morphine, HLM 0.5 mg/mL, 30 min)) read?
Answer: ≥ 98.5%

Question: How did the “paw withdrawal thresholds to non-noxious stimulations versus vehicle-treated animals” value ([2]; 10 mg/kg PO once daily, day 3 and day 7) turn out when `COc1ccc2c(cccc2[C@H]2CO[C@H](CCCNC(=O)OCC(N)=O)OC2)c1` [Compound A, 2-amino-2-oxoethyl trans-3-[5-(6-methoxy-naphtalen-1-yl)-1,3-dioxan-2-yl]propyl-carbamate] was run?
Answer: significantly higher

Question: What about the “Reversal of allodynia (%)” value ([2]; Day 3, 10 mg/kg PO) of the same compound?
Answer: 45.06 ±3.11%

Question: And the “Delta values (Delta PWT)” value ([2]; Day 3, 10 mg/kg PO)?
Answer: 0.78 ±0.06

Question: What about the “Reversal of allodynia (%)” value ([2]; Day 7, 10 mg/kg PO) of the same compound?
Answer: 41.87 ±4.01%

Question: What about the “Delta values (Delta PWT)” value ([2]; Day 7, 10 mg/kg PO) of the same compound?
Answer: 0.79 ±0.08

Question: And the “evoked-pain induced by bone metastases in the hind-paw” value ([2]; acute oral dosing, allodynia fully installed)?
Answer: significantly reversed

Question: And the “Reversal of allodynia (%)” value ([2]; day 1, 30 mg/kg PO, Mean ±SEM)?
Answer: 68.74 ±8.99%

Question: And the “Delta values (Delta PWT)” value ([2]; day 1, 30 mg/kg PO, Mean ±SEM)?
Answer: 1.04 ±0.13

Question: What about the “PWT values at T0” value ([2]; day 1, T0 (baseline before administration), group dosed 30 mg/kg PO, Mean ±SEM) of the same compound?
Answer: 1.815 ±0.065 gram

Question: And the “PWT values at T0” value ([2]; day 7, T0 (before that day's administration), 10 mg/kg PO once daily, Mean ±SEM)?
Answer: 1.728 ±0.050 gram

Question: And the “paw withdrawal thresholds to non-noxious stimulations versus vehicle-treated animals” value ([2]; first day, 30 mg/kg PO)?
Answer: significantly higher

Question: And the “tolerance in analgesic effect” value ([2]; repeated (7 days) administration)?
Answer: did not induce tolerance

Question: And the “IC50 (M3G and M6G formation)” value ([1]; 2 mM morphine, Compound A 0.5 to 250 µM, HLM)?
Answer: could not be estimated

Question: And the “% Control (M6G formation)” value ([1]; Compound A 0.5 µM)?
Answer: 96.9%

Question: What about the “% Control (M6G formation)” value ([1]; Compound A 1.0 µM) of the same compound?
Answer: 94.4%

Question: What about the “% Control (M6G formation)” value ([1]; Compound A 5.0 µM) of the same compound?
Answer: 102.4%

Question: What about the “% Control (M6G formation)” value ([1]; Compound A 10 µM) of the same compound?
Answer: 110.4%

Question: What about the “% Control (M6G formation)” value ([1]; Compound A 25 µM) of the same compound?
Answer: 105.8%

Question: What about the “% Control (M6G formation)” value ([1]; Compound A 50 µM) of the same compound?
Answer: 108.3%

Question: And the “% Control (M6G formation)” value ([1]; Compound A 100 µM)?
Answer: 97.4%

Question: And the “% Control (M6G formation)” value ([1]; Compound A 250 µM)?
Answer: 96.5%

Question: And the “% Control (M3G formation)” value ([1]; Compound A 0.5 µm)?
Answer: 97.7%

Question: And the “% Control (M3G formation)” value ([1]; Compound A 1.0 µm)?
Answer: 96.2%

Question: What about the “% Control (M3G formation)” value ([1]; Compound A 5.0 µm) of the same compound?
Answer: 106.0%

Question: What about the “% Control (M3G formation)” value ([1]; Compound A 10 µm) of the same compound?
Answer: 107.9%

Question: And the “% Control (M3G formation)” value ([1]; Compound A 25 µm)?
Answer: 108.3%

Question: And the “% Control (M3G formation)” value ([1]; Compound A 50 µm)?
Answer: 105.7%

Question: And the “% Control (M3G formation)” value ([1]; Compound A 100 µm)?
Answer: 92.7%

Question: What about the “% Control (M3G formation)” value ([1]; Compound A 250 µm) of the same compound?
Answer: 94.2%

Question: And the “drug interaction with morphine” value ([1]; according to in vitro results)?
Answer: no significant drug interaction

Question: What about the “inhibition of morphine metabolism” value ([1]; human liver microsomes, M3G and M6G formation) of the same compound?
Answer: no inhibition
